From ChEMBL document CHEMBL1140482, “A novel class of Hsp90 inhibitors isolated by structure-based virtual screening” (Bioorg Med Chem Lett, 2007)

Key:
[1] = Inhibition of yeast Hsp90 ATPase expressed in Escherichia coli; set-up: species or system Saccharomyces cerevisiae
MCF7 = assay: Growth inhibition of human MCF7 cells after days by SRB assay; assay type: functional

Compound	IC50 [1] [µM]	GI50 (MCF7) [µM]
COC1=C2C[C@@H](C)C[C@H](OC)[C@H](O)[C@@H](C)/C=C(\C)[C@H](OC(N)=O)[C@@H](OC)/C=C\C=C(/C)C(=O)NC(=CC1=O)C2=O [GELDANAMYCIN]	22	35.6
COc1cc(/C=C/c2nc3ccccc3c(=O)n2-c2ccccc2O)ccc1O	2.3	9.6
COc1ccc(-n2c(/C=C/c3cccc(OC)c3O)nc3ccccc3c2=O)cc1	31.8	25.4
O=C(O)c1ccc(-n2c(/C=C/c3ccccc3O)nc3ccccc3c2=O)cc1	20	27.5
